# Test system: adult subjects with PSC
# Test: Phase 2, multicenter, dose-ranging, 18-week, placebo-controlled study of BUDCA in PSC
# Assay type: in vivo, human
# Details: for Share of subjects achieving a 25% reduction in ALP: 0 subjects on placebo; for Percent change from Baseline in GGT at Week 6: all subjects
# Description: A Phase 2, multicenter, dose-ranging, 18-week study was conducted comparing two dose regimens of BUDCA (500 mg BID and 1,000 mg BID) to placebo in adult subjects with PSC.
# BUDCA drug product (also herein referred to as HTD1801) is a film-coated tablet containing 250 mg of berberine ursodeoxycholate.
# The clinical study design consisted of an initial randomized, double-blind, placebo-and dose-controlled, parallel-group period (Period 1), followed by a dose-controlled extension period (Period 2), which is followed by a placebo-controlled randomized withdrawal period (Period 3). • Period 1: Subjects were randomized to receive BID doses of 500 mg, 1,000 mg, or matching placebo for 6 weeks. The primary analysis was based on this initial 6-week randomized, double-blind, placebo- and dose-controlled, parallel-group period. • Period 2: Subjects previously randomized to 500 mg BID or 1,000 mg BID continued for 6 more weeks at that previous dose, while subjects previously randomized to placebo were re-randomized to receive 6 weeks of either 500 mg BID or 1,000 mg BID. • Period 3: Subjects were re-randomized to either continue on the active treatment they had received in Period 2 or be assigned to placebo.
# Patients with a known diagnosis of PSC based upon magnetic resonance cholangiopancreatography (MRCP) or endoscopic retrograde cholangiopancreatography (ERCP) findings were eligible for inclusion in this study. To be eligible for randomization into the study, serum ALP levels at screening had to be elevated at least above 1.5 times the upper limit of normal (ULN).
# The primary endpoint was the absolute change in ALP from Baseline to Week 6 (Period 1).
# For this study, 88 subjects with PSC were screened, 59 were randomized, 55 received at least 1 dose of study drug (safety population), and 54 had at least 1 post-dose efficacy assessment (modified intent-to-treat (mITT) population).
# All statistical tests were two-sided with an alpha level of 0.05. The statistical analyses were conducted with the SAS® System version 9.4 or higher. All analyses were subject to formal verification procedures.
# [1] = Baseline ALP <3x ULN, 500 mg BID (n=8)
# [2] = Baseline ALP <3x ULN, 1,000 mg BID (n=16)
# [3] = Baseline ALP ≥3x ULN, 500 mg BID (n=7)
# [4] = Baseline ALP ≥3x ULN, 1,000 mg BID (n=8)
smiles,measurement,setting,value
"COc1ccc2cc3[n+](cc2c1OC)CCc1cc2c(cc1-3)OCO2.C[C@H](CCC(=O)[O-])[C@H]1CC[C@H]2[C@@H]3[C@@H](O)C[C@@H]4C[C@H](O)CC[C@]4(C)[C@H]3CC[C@]12C [BUDCA, berberine ursodeoxycholate]",Share of subjects achieving a 25% reduction in ALP,"500 mg BID, prior UDCA use, week 6",33%
same,Percent change from Baseline in GGT at Week 6,500 mg BID,-21%
same,Percent change in GGT at Week 6,"500 mg BID, subjects without prior UDCA use",-42%
same,Percent change from Baseline in GGT at Week 6,"1,000 mg BID",-40%
same,Percent change in GGT at Week 6,"1,000 mg BID, subjects without prior UDCA use",-67%
same,Mean (SD) change from Baseline to Week 6 in ALP,[1],-13 (118) U/L
same,Mean (SD) change from Baseline to Week 6 in ALT,[1],-63 (104) U/L
same,Mean (SD) change from Baseline to Week 6 in AST,[1],-18 (41) U/L
same,Mean (SD) change from Baseline to Week 6 in ALP,[2],-20 (106) U/L
same,Mean (SD) change from Baseline to Week 6 in ALT,[2],-30 (72) U/L
same,Mean (SD) change from Baseline to Week 6 in AST,[2],-14 (26) U/L
same,Mean (SD) change from Baseline to Week 6 in ALP,[3],-138 (134) U/L
same,Mean (SD) change from Baseline to Week 6 in ALT,[3],-48 (74) U/L
same,Mean (SD) change from Baseline to Week 6 in AST,[3],-37 (49) U/L
same,Mean (SD) change from Baseline to Week 6 in ALP,[4],-185 (143) U/L
same,Mean (SD) change from Baseline to Week 6 in ALT,[4],-80 (56) U/L
same,Mean (SD) change from Baseline to Week 6 in AST,[4],-37 (39) U/L
same,Absolute change in ALP from Baseline to Week 6 (primary efficacy endpoint),"Period 1, both doses, compared to an increase in the placebo group",clinically meaningful and statistically significant decrease in ALP
same,Number of subjects achieving ALP <1.5 x ULN,"Period 3, pooled active-to-active groups, depending on the week examined",4-6
same,Reduction of GGT,"Subject 18-003, 1,000 mg BID, Week 18",~ 10%
same,ALP relative to ULN,"Subject 18-003, 1,000 mg BID, after Week 12 through Week 18, baseline 1.8-fold ULN, prior UDCA 15 mg/kg",below 1.5 fold ULN
same,Reduction of GGT,"Subject 23-004, 1,000 mg BID, Week 18",~50%
same,ALP relative to ULN,"Subject 23-004, 1,000 mg BID, Week 18, baseline 2.6-fold ULN, prior UDCA 12 mg/kg",below 1.6 fold ULN
same,"Response rate with 1,000 mg BID compared with 500 mg BID, each efficacy endpoint",Week 6,~ 2 fold
same,Share of subjects achieving a 25% reduction in ALP,"active treatment, subjects without prior UDCA use",Over half
same,"Mean total bilirubin, albumin, and platelets",all treatments throughout the study,remained stable and within normal range
same,Safety and tolerability,"subjects with PSC, 500 mg BID and 1,000 mg BID, up to 18 weeks",safe and generally well tolerated

# Reference: patent publication US20230346803A1, “COMPOSITIONS OF BERBERINE URSODEOXYCHOLATE AND METHODS THEREOF FOR TREATING PRIMARY SCLEROSING CHOLANGITIS” (SHENZHEN HIGHTIDE BIOPHARMACEUTICAL LTD., priority 2021, published 2023)
